# Test results published in publication PMC5656653, “Evaluation of Ga-DOTA-(D-Asp)n as bone imaging agents: D-aspartic acid peptides as carriers to bone” (Scientific Reports, 2017).
# Where a SMILES comes first, the peptide text is derived from it. [ ]: non-standard residue; d: D form. The star is where a group is joined. DOTA = O=C(O)CN1CCN(CC(=O)O)CCN(CC(=O)*)CCN(CC(=O)O)CC1
# Experiment: Biodistribution experiments in normal mice after i.v. injection
# Assay type: in vivo
# Conditions: mouse, in vivo, iv; for tissue uptake dose at 10 min / tissue uptake dose at 1 h / tissue uptake dose at 3 h: male, ddY, total radioactivity, Biodistribution of radioactivity
# Description: Experiments with animals were conducted in strict accordance with the Guidelines for the Care and Use of Laboratory Animals of Kanazawa University. The animal experimental protocols used were approved by the Committee on Animal Experimentation of Kanazawa University (Permit Number: AP-132633). Biodistribution experiments were performed after intravenous administration of each diluted tracer solution (37–740 kBq/100 μL) to 6-week-old male ddY mice (27–32 g, Japan SLC, Inc., Hamamatsu, Japan). Four or five mice at each time point after the administration of each compound were sacrificed by decapitation at 10, 60, and 180 min post-injection. Tissues of interest were taken and weighed. Complete left femurs were isolated as representative bone samples, radioactivity was determined using gamma counters (AccuFLEX γ ARC-8001 in the case of ^18F, Hitachi, Ltd.), and background counts and physical decay were corrected during counting.
tissue uptake dose at 1 h (Blood) [%ID],tissue uptake dose at 3 h (Blood) [%ID],tissue uptake dose at 10 min (Bone (Femur)) [%ID],tissue uptake dose at 1 h (Bone (Femur)) [%ID],tissue uptake dose at 3 h (Bone (Femur)) [%ID],tissue uptake dose at 10 min (Brain) [%ID],tissue uptake dose at 1 h (Brain) [%ID],tissue uptake dose at 3 h (Brain) [%ID],tissue uptake dose at 10 min (Heart) [%ID],tissue uptake dose at 1 h (Heart) [%ID],tissue uptake dose at 3 h (Heart) [%ID],tissue uptake dose at 10 min (Kidney) [%ID],tissue uptake dose at 1 h (Kidney) [%ID],tissue uptake dose at 3 h (Kidney) [%ID],tissue uptake dose at 10 min (Large-intestine) [%ID],tissue uptake dose at 1 h (Large-intestine) [%ID],tissue uptake dose at 3 h (Large-intestine) [%ID],tissue uptake dose at 10 min (Liver) [%ID],tissue uptake dose at 1 h (Liver) [%ID],tissue uptake dose at 3 h (Liver) [%ID],SMILES,further results
0.24,0.05,1.57,0.88,0.49,0.07,0.02,0.01,0.86,0.11,0.06,7.61,6.33,1.42,0.37,0.12,0.38,0.57,0.31,0.11,"O=C(O)C[C@@H](NC(=O)[C@@H](CC(=O)O)NC(=O)CN1CCN(CC(=O)O)CCN(CC(=O)O)CCN(CC(=O)O)CC1)C(=O)O [^67Ga-DOTA-(D-Asp)2, metal not drawn] ({DOTA}-[dD]-[dD]-OH)",tissue uptake dose at 10 min (Blood): 2.19 %ID; tissue uptake dose at 10 min (Lung): 1.45 %ID; tissue uptake dose at 1 h (Lung): 0.26 %ID; tissue uptake dose at 3 h (Lung): 0.08 %ID; tissue uptake dose at 10 min (Muscle): 0.53 %ID; tissue uptake dose at 1 h (Muscle): 0.11 %ID; tissue uptake dose at 3 h (Muscle): 0.08 %ID; tissue uptake dose at 10 min (Pancreas): 0.57 %ID; tissue uptake dose at 1 h (Pancreas): 0.15 %ID; tissue uptake dose at 3 h (Pancreas): 0.09 %ID; tissue uptake dose at 10 min (Small-intestine): 0.5 %ID; tissue uptake dose at 1 h (Small-intestine): 0.14 %ID; tissue uptake dose at 3 h (Small-intestine): 0.08 %ID; tissue uptake dose at 10 min (Spleen): 0.5 %ID; tissue uptake dose at 1 h (Spleen): 0.24 %ID; tissue uptake dose at 3 h (Spleen): 0.08 %ID; tissue uptake dose at 10 min (Stomach): 0.24 %ID; tissue uptake dose at 1 h (Stomach): 0.06 %ID; tissue uptake dose at 3 h (Stomach): 0.36 %ID; Accumulation of radioactivity in bone (in words): subtle accumulation of radioactivity in bone
0.27,0.13,6.78,5.01,2.8,0.1,0.02,0.01,1.03,0.12,0.06,12,6.31,1.45,0.47,0.22,0.22,0.67,0.22,0.14,"O=C(O)C[C@@H](NC(=O)[C@@H](CC(=O)O)NC(=O)[C@@H](CC(=O)O)NC(=O)[C@@H](CC(=O)O)NC(=O)[C@@H](CC(=O)O)NC(=O)CN1CCN(CC(=O)O)CCN(CC(=O)O)CCN(CC(=O)O)CC1)C(=O)O [^67Ga-DOTA-(D-Asp)5, metal not drawn] ({DOTA}-[dD][dD][dD][dD][dD]-OH)",tissue uptake dose at 10 min (Lung): 2.03 %ID; tissue uptake dose at 1 h (Lung): 0.3 %ID; tissue uptake dose at 3 h (Lung): 0.09 %ID; tissue uptake dose at 10 min (Muscle): 0.68 %ID; tissue uptake dose at 1 h (Muscle): 0.13 %ID; tissue uptake dose at 3 h (Muscle): 0.07 %ID; tissue uptake dose at 10 min (Pancreas): 0.72 %ID; tissue uptake dose at 1 h (Pancreas): 0.25 %ID; tissue uptake dose at 3 h (Pancreas): 0.06 %ID; tissue uptake dose at 10 min (Small-intestine): 0.55 %ID; tissue uptake dose at 1 h (Small-intestine): 0.23 %ID; tissue uptake dose at 3 h (Small-intestine): 0.18 %ID; tissue uptake dose at 10 min (Spleen): 0.56 %ID; tissue uptake dose at 1 h (Spleen): 0.16 %ID; tissue uptake dose at 3 h (Spleen): 0.11 %ID; tissue uptake dose at 10 min (Stomach): 0.32 %ID; tissue uptake dose at 1 h (Stomach): 0.1 %ID; tissue uptake dose at 3 h (Stomach): 0.48 %ID; Accumulation of radioactivity in bone (in words): moderate accumulation of radioactivity in bone
